{"source": "ChEMBL document CHEMBL5291721", "about": "“A preclinical secondary pharmacology resource illuminates target-adverse drug reaction associations of marketed drugs” (Nat Commun, 2023); note: assay procedure not described here", "key": {"[1]": {"target": "T1, Androgen receptor (Rattus norvegicus, UniProt P15207)", "T1 sequence (P15207 whole entry)": "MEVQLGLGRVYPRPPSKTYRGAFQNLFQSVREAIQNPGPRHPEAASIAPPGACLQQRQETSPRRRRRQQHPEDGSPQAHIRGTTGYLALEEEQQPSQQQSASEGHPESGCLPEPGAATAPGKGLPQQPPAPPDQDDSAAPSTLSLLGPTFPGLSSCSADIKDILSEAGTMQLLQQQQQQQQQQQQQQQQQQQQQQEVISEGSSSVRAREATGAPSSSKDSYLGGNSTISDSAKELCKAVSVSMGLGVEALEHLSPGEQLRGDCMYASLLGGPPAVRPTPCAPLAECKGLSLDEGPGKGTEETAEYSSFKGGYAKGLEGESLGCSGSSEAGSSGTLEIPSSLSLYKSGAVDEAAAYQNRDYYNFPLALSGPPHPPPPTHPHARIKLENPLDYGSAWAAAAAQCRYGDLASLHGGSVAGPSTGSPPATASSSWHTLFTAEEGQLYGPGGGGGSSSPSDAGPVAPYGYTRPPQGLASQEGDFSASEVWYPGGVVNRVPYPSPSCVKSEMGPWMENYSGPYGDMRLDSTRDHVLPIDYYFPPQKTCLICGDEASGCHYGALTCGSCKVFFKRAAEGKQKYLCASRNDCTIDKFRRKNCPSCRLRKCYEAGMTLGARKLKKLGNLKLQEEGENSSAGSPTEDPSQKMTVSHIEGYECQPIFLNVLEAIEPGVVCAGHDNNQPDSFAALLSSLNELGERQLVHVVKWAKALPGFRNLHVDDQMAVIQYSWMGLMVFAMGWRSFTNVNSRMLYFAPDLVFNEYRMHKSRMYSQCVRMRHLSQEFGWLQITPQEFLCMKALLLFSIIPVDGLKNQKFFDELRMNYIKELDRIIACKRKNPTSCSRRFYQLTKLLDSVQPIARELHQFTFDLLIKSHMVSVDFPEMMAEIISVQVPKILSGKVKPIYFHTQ", "type": "functional"}, "[2]": {"target": "Synaptic vesicular amine transporter (Rattus norvegicus, UniProt Q01827)", "sequence (Q01827 whole entry)": "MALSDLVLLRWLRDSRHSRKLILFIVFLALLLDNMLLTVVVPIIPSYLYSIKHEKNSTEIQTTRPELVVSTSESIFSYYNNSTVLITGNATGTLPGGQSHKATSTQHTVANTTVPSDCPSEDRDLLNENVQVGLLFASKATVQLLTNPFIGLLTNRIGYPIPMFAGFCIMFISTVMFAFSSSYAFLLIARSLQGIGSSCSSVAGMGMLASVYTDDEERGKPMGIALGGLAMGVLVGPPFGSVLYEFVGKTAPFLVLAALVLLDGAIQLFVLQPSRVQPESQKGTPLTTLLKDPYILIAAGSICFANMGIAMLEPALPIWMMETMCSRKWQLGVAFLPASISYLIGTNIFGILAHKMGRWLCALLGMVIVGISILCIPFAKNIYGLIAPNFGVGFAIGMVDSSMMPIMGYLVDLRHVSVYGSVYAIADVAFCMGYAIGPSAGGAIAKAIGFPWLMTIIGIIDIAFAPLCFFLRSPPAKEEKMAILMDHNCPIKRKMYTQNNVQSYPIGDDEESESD", "type": "functional"}, "[3]": {"target": "D(1A) dopamine receptor (Homo sapiens, UniProt P21728)", "sequence (P21728 whole entry)": "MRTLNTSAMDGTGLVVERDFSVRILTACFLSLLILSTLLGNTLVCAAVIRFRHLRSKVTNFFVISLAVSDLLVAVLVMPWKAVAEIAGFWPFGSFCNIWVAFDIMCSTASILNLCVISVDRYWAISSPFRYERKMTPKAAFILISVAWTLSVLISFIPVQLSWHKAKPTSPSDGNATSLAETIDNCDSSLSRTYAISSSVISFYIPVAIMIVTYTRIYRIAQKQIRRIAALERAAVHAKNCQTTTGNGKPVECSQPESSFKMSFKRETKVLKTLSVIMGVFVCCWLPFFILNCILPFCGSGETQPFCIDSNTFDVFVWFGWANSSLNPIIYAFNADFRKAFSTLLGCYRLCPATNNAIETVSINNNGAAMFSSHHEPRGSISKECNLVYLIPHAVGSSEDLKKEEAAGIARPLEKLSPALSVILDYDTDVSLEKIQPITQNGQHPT"}, "[4]": {"target": "T2, Muscarinic acetylcholine receptor M1 (Homo sapiens, UniProt P11229)", "T2 sequence (P11229 whole entry)": "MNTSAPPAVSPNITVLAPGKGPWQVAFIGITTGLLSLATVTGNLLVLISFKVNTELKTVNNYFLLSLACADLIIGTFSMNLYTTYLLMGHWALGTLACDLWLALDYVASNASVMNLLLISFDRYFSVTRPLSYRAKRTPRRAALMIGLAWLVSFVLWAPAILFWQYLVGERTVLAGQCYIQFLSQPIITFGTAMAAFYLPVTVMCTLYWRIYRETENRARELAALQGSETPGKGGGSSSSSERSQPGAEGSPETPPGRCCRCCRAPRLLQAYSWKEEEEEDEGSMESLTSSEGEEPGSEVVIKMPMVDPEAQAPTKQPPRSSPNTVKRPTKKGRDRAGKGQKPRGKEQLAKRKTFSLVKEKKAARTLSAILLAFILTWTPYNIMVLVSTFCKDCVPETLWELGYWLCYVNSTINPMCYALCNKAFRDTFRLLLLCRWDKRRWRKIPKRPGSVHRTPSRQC", "type": "functional, cell-based"}, "[5]": {"target": "T3, Muscarinic acetylcholine receptor M5 (Homo sapiens, UniProt P08912)", "T3 sequence (P08912 whole entry)": "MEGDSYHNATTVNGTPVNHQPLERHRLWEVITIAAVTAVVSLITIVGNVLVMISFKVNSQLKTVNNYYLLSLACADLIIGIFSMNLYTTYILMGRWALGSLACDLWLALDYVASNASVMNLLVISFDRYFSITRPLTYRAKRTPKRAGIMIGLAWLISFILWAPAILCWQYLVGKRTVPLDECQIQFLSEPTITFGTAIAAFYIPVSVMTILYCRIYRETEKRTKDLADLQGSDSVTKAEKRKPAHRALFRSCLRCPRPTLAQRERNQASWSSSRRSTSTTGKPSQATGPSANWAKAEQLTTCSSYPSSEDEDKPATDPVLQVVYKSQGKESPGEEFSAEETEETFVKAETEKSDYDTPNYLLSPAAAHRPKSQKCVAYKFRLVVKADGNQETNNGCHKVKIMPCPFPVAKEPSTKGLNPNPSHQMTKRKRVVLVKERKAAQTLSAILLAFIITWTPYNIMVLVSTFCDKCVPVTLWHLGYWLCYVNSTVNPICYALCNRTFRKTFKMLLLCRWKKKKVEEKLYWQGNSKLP"}, "[6]": {"target": "T4, Muscarinic acetylcholine receptor M4 (Homo sapiens, UniProt P08173)", "T4 sequence (P08173 whole entry)": "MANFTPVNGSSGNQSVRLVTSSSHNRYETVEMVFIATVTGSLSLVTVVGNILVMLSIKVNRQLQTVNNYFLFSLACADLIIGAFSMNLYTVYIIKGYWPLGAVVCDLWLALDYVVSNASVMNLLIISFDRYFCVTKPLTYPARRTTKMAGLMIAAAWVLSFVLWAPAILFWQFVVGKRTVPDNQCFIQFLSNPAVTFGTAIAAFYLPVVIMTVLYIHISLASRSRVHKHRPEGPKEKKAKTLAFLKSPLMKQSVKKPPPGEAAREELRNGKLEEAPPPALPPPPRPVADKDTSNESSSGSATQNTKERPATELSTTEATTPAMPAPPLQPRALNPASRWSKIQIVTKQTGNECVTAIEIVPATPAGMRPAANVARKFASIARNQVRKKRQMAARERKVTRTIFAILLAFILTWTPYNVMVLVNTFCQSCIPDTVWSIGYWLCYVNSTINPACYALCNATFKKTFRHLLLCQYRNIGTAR"}, "[7]": {"target": "D(1B) dopamine receptor (Homo sapiens, UniProt P21918)", "sequence (P21918 whole entry)": "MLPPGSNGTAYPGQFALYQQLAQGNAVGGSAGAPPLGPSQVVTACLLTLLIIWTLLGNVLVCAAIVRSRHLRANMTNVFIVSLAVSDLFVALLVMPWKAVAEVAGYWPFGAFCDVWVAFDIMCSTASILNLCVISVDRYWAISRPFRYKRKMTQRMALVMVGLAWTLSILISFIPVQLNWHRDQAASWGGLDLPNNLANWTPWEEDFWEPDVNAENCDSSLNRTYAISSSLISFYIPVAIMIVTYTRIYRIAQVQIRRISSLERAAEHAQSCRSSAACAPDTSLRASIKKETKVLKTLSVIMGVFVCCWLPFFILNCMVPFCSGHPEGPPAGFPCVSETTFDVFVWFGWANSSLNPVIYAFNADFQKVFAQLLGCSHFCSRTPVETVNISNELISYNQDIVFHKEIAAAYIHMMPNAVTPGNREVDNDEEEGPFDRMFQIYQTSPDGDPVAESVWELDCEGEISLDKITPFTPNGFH"}, "[8]": {"target": "T5, Substance-K receptor (Homo sapiens, UniProt P21452)", "T5 sequence (P21452 whole entry)": "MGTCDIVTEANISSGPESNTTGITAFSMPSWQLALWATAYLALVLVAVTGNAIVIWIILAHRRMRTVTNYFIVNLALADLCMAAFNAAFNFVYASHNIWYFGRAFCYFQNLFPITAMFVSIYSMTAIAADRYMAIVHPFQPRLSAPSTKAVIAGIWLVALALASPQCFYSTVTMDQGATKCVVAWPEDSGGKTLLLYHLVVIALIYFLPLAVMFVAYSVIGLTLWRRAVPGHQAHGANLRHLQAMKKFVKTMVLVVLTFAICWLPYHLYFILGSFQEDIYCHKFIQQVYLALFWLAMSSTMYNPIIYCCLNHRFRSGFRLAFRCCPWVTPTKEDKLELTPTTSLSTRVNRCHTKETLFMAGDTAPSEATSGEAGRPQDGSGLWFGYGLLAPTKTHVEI"}, "[9]": {"target": "5-hydroxytryptamine receptor 2B (Homo sapiens, UniProt P41595)", "sequence (P41595 whole entry)": "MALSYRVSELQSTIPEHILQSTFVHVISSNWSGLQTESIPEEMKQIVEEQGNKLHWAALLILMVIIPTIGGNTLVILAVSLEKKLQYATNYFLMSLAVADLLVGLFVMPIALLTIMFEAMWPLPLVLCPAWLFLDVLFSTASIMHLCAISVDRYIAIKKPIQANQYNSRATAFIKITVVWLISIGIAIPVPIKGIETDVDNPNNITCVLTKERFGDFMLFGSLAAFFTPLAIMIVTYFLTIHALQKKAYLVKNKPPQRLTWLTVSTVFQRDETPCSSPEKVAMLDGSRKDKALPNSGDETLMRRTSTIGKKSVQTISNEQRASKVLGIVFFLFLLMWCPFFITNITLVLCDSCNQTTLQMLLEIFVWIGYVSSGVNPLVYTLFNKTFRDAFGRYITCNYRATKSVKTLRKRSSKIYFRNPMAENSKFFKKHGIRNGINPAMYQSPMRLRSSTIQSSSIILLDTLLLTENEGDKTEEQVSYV"}}, "data": [{"smiles": "CN(C)CC/C=C1\\c2ccccc2CSc2ccccc21", "note": "[DOTHIEPIN]", "values": [{"measurement": "AC50", "setting": "[1]", "value": "> 30", "unit": "µM"}]}, {"smiles": "CC[C@@H](C(N)=O)N1CCCC1=O", "values": [{"measurement": "AC50", "setting": "[2]", "value": "> 30", "unit": "µM"}]}, {"smiles": "CC(=O)c1ccc2c(c1)N(CCCN(C)C)c1ccccc1S2", "note": "[ACEPROMAZINE]", "values": [{"measurement": "AC50", "setting": "[3]", "value": 66, "unit": "nM"}]}, {"smiles": "NC1CCN(c2c(F)cc3c(=O)c(C(=O)O)cn(C4CC4)c3c2Cl)C1", "note": "(centres undefined) [CLINAFLOXACIN]", "values": [{"measurement": "AC50", "setting": "[4]", "value": 40, "unit": "µM"}]}, {"smiles": "CCOc1ccccc1OCC1CNCCO1", "note": "(centres undefined) [VILOXAZINE]", "values": [{"measurement": "AC50", "setting": "[5]", "value": "> 10", "unit": "µM"}, {"measurement": "AC50", "setting": "[6]", "value": "> 10", "unit": "µM"}, {"measurement": "AC50", "setting": "[7]", "value": "> 10", "unit": "µM"}, {"measurement": "AC50", "setting": "[8]", "value": "> 10", "unit": "µM"}]}, {"smiles": "C=CCN1C[C@H](C(=O)N(CCCN(C)C)C(=O)NCC)C[C@@H]2c3cccc4[nH]cc(c34)C[C@H]21", "note": "[CABERGOLINE]", "values": [{"measurement": "AC50", "setting": "[9]", "value": 14.8, "unit": "nM"}]}]}
